Tests used:
Assay in all cases: KINOMEscan (ScanMAX) kinase profiling
Assay type in all cases: binding
[1] = target: T1, panel of 468 kinases (Homo sapiens, UniProt Q9Y243); conditions: AKT3; 1 μM; read-out: % control
T1 construct: purchased KINOMEscan (ScanMAX) service

[2] = target: T2, panel of 468 kinases (Homo sapiens, UniProt Q92772); conditions: CDKL2; 1 μM; read-out: % control
T2 construct: purchased KINOMEscan (ScanMAX) service
T2 sequence (Q92772 1-493): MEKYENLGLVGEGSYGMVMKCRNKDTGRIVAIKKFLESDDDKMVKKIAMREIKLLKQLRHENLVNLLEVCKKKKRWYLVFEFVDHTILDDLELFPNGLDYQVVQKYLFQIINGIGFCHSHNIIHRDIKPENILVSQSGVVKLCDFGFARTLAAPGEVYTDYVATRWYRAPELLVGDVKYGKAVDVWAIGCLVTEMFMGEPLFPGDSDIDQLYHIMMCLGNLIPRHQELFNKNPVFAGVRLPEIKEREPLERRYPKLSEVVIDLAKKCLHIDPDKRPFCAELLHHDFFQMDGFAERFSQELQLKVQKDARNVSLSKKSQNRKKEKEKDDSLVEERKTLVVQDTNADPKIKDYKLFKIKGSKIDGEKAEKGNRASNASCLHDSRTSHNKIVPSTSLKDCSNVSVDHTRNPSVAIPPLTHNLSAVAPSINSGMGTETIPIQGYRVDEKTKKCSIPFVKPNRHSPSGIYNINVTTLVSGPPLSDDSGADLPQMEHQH

[3] = target: T3, panel of 468 kinases (Homo sapiens, UniProt P24941); conditions: CDK2; 1 μM; read-out: % control
T3 construct: purchased KINOMEscan (ScanMAX) service

[4] = target: T4, panel of 468 kinases (Homo sapiens, UniProt Q14289); conditions: PYK2; 1 μM; read-out: % control
T4 construct: purchased KINOMEscan (ScanMAX) service

[5] = target: T5, panel of 468 kinases (Homo sapiens, UniProt P78368); conditions: CSNK1G2; 1 μM; read-out: % control
T5 construct: purchased KINOMEscan (ScanMAX) service

[6] = target: T6, panel of 468 kinases (Homo sapiens, UniProt P45985); conditions: MEK4; 1 μM; read-out: % control
T6 construct: purchased KINOMEscan (ScanMAX) service
T6 sequence (P45985 1-399): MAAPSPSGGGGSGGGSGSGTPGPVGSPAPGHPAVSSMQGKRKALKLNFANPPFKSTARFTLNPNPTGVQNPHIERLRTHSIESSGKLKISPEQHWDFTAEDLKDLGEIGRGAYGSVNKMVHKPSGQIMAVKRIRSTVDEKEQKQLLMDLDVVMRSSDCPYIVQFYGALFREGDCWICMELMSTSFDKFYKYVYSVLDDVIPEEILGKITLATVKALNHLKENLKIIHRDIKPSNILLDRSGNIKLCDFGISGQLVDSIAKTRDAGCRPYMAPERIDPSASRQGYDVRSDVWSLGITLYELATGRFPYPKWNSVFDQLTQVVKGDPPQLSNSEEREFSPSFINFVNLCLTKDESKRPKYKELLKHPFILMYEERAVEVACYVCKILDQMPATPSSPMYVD

[7] = target: T7, panel of 468 kinases (Homo sapiens, UniProt P42336, E542K); conditions: PIK3CA(E542K); 1 μM; read-out: % control
T7 construct: purchased KINOMEscan (ScanMAX) service

[8] = target: T8, panel of 468 kinases (Homo sapiens, UniProt O14976); conditions: GAK; 1 μM; read-out: % control
T8 construct: purchased KINOMEscan (ScanMAX) service
T8 sequence (O14976 1-1311): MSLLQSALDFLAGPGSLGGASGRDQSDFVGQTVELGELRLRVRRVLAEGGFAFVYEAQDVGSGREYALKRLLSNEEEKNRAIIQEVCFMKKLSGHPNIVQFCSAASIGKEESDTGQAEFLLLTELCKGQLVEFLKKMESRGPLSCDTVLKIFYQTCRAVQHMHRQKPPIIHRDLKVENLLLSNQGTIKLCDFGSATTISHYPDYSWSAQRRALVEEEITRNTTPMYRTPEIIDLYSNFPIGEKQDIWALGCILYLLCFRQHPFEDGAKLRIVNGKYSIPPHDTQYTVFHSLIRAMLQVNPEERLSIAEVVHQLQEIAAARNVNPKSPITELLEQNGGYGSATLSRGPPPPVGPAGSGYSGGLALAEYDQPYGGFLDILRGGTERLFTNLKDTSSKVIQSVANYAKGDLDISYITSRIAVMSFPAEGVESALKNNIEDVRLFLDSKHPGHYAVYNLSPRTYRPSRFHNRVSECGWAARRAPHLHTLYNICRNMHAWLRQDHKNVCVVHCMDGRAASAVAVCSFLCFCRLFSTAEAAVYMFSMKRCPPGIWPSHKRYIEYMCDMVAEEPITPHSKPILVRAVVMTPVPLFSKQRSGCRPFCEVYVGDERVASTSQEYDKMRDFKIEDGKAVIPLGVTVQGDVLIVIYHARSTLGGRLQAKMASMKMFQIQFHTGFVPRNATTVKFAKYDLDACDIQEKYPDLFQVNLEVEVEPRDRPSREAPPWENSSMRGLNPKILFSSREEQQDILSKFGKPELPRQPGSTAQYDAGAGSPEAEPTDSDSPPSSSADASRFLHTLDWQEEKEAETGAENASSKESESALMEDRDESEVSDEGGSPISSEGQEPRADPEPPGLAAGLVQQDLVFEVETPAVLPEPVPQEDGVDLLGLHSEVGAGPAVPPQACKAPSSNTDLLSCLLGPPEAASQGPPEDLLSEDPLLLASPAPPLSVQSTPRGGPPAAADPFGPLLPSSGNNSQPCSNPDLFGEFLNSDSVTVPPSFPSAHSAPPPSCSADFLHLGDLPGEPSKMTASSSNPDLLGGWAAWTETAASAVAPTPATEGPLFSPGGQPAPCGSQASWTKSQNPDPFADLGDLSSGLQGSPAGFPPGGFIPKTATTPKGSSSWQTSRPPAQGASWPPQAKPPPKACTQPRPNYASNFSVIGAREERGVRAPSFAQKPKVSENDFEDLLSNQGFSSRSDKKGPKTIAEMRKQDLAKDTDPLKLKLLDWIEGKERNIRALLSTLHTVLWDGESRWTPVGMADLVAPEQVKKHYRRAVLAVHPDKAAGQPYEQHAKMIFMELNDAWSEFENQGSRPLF

T4 sequence (Q14289 whole entry): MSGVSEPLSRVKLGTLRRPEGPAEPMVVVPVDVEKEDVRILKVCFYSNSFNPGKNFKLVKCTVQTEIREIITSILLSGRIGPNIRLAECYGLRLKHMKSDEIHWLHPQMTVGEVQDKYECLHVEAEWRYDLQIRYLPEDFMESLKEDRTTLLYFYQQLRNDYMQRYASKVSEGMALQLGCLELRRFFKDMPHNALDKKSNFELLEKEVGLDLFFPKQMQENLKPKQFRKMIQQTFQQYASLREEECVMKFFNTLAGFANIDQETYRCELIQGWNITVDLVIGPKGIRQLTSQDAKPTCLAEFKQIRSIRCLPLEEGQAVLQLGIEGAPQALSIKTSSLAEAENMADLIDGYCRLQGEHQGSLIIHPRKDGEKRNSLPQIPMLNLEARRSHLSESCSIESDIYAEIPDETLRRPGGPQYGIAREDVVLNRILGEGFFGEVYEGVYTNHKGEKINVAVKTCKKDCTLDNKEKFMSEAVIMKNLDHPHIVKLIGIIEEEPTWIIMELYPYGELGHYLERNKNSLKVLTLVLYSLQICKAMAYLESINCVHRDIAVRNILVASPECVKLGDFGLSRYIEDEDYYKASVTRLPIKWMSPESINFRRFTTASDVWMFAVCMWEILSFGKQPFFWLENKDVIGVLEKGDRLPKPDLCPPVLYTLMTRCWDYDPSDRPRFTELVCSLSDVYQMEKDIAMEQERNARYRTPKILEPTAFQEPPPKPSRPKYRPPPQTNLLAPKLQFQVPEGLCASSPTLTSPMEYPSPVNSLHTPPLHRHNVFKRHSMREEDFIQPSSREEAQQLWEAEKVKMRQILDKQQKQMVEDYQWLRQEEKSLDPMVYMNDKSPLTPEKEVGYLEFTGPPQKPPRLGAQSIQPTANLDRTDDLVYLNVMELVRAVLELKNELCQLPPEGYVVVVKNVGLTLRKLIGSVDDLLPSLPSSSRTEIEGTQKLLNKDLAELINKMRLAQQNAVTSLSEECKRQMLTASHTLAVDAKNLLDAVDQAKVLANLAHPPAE
T5 sequence (P78368 whole entry): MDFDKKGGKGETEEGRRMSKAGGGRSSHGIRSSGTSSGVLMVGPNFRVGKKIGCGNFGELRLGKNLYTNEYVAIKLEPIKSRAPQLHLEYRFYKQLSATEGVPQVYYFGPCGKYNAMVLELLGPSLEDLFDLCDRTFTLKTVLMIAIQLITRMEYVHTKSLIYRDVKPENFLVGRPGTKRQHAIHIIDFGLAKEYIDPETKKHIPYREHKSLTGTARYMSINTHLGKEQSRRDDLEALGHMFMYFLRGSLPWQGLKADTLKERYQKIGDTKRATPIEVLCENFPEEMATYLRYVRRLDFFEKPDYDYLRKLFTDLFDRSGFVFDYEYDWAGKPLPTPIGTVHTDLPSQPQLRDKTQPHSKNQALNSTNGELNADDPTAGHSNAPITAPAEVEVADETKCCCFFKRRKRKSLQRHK
T7 sequence (P42336 whole entry E542K): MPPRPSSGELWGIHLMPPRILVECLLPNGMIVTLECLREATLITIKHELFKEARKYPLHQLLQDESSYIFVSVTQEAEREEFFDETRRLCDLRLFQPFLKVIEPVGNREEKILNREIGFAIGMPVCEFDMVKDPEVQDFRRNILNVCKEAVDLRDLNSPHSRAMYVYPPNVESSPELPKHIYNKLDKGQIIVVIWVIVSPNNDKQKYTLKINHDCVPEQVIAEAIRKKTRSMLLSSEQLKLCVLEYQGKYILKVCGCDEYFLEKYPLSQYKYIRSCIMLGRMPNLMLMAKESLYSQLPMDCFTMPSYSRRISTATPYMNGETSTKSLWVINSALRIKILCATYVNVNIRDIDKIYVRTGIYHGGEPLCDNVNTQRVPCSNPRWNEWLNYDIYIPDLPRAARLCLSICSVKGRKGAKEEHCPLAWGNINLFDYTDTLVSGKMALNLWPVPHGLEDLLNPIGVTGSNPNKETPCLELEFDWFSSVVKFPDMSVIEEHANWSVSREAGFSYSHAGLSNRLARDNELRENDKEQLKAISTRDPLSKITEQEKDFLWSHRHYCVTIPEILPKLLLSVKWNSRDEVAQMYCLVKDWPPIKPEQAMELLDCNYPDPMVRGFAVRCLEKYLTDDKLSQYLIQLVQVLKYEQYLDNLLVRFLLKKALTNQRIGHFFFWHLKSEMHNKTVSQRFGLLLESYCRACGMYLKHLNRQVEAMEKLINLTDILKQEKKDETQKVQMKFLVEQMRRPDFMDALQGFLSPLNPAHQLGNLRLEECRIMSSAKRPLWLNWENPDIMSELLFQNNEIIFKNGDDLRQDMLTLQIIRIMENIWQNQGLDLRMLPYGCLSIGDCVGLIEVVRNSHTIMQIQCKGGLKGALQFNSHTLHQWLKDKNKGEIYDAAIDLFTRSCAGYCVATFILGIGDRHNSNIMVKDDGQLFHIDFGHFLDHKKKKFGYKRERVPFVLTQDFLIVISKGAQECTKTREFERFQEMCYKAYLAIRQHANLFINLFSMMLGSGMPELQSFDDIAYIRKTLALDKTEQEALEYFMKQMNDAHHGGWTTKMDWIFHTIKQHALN
T1 sequence (Q9Y243 whole entry): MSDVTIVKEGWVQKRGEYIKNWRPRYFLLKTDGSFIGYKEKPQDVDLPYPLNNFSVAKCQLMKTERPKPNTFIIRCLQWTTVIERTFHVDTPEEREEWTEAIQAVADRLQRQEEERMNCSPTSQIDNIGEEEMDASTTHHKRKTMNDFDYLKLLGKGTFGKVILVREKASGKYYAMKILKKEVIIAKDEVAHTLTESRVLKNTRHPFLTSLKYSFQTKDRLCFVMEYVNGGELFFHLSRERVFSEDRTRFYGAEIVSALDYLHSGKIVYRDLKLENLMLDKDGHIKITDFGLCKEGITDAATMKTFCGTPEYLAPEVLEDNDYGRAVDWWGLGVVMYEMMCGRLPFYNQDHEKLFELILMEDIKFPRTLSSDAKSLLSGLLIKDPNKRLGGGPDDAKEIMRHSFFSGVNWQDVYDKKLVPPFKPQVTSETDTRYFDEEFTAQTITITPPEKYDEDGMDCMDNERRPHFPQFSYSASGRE

SMILES	remaining binding at 1 µM [1]	remaining binding at 1 µM [2]	remaining binding at 1 µM [3]	remaining binding at 1 µM [4]	remaining binding at 1 µM [5]	remaining binding at 1 µM [6]	remaining binding at 1 µM [7]	remaining binding at 1 µM [8]
CNc1nc(Nc2ccc(S(=O)(=O)N3CCC(N4CCOCC4)CC3)cc2OC)nc2[nH]cc(Cl)c12 [Compound 12, 5-chloro-N2-(2-methoxy-4-((4-morpholinopiperidin-1-yl)sulfonyl)phenyl)-N4-methyl-7H-pyrrolo[2,3-d]pyrimidine-2,4-diamine]	100%	100%	100%	35%	63%	26%	65%	3.8%
CNc1nc(Nc2ccc(C(=O)N3CCC(N4CCOCC4)CC3)c3c2OCO3)nc2[nH]cc(Cl)c12 [Compound 75, (7-((5-chloro-4-(methylamino)-7H-pyrrolo[2,3-d]pyrimidin-2-yl)amino)benzo[d][1,3]dioxol-4-yl)(4-morpholinopiperidin-1-yl)methanone]	100%	100%	100%	40%	2.9%	0.05%	78%	0.55%
CNc1nc(Nc2ccc(P3(=O)CCN(C4CCOCC4)CC3)cc2OC)nc2[nH]cc(Cl)c12 [Compound 77, 4-(4-((5-chloro-4-(methylamino)-7H-pyrrolo[2,3-d]pyrimidin-2-yl)amino)-3-methoxyphenyl)-1-(tetrahydro-2H-pyran-4-yl)-1,4-azaphosphinane 4-oxide]	100%	100%	100%	27%	96%	4.7%	67%	0.9%
